Source: US12514845B2, “Ionic-liquid-based formulations for the prevention or treatment of neurological diseases” (Universidade De Aveiro, priority 2022, dated 2026)
Like-named read-outs stand apart in the source and are kept apart here.

Experiments:
[1] = Decomposition temperature by thermogravimetric analysis (TGA); type: physicochemical; conditions: TGA (FIG. 5)
Method: In an embodiment, the decomposition temperature of [Chol]2[N1(4)inh]+N1(4)inh was evaluated by thermogravimetric analysis (TGA) and the results disclose that the mixture is thermally stable up to 200° C., as disclosed in FIG. 5.
In an embodiment, the decomposition temperature was determined by thermogravimetric analysis (TGA).

Nox4 = biological target: T1, Nox4 (Homo sapiens, UniProt Q9NPH5); conditions: Bae et al. 2016; cited from earlier work
T1 construct: host or cells: drosophila
T1 sequence (Q9NPH5 1-578): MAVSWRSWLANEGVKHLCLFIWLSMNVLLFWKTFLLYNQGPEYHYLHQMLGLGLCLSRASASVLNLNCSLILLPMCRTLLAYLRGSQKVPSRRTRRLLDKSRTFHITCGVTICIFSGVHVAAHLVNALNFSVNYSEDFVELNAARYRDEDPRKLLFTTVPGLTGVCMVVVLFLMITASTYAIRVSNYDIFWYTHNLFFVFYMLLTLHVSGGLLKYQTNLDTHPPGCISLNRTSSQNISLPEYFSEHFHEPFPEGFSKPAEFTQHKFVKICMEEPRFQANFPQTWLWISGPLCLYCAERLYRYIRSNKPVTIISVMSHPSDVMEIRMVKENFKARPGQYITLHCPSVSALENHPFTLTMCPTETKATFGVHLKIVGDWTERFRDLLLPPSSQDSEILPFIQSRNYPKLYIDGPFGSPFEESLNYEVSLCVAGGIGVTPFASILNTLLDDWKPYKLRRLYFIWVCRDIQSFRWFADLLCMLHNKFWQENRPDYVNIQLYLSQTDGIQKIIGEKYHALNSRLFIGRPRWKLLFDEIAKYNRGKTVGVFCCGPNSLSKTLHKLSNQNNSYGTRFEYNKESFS

dopaminergic neurons = conditions: experimental models of PD; Cristóvão et al. 2019; cited from earlier work
[2] = Solubility in water and PBS (saturation, UV-spectroscopy); type: physicochemical; conditions: thermodynamic from solid, 37° C., minimum 72 h
Method: In an embodiment, the solutes N1(4)inh and mixture comprising [Chol]2[N1(4)inh]+N1(4)inh were added in excess to a fixed volume (500 μL) of water and PBS solution. These mixtures were incubated at 37° C., under constant agitation 1150 rpm and for a minimum of 72 h, using an Eppendorf Thermomixer Comfort equipment. Throughout this process, solute was added to the mixture, whenever necessary, i.e., until the solution saturation. All samples were filtered using syringe filters ([…]) to remove possible suspended solid particles.
(§1) In an embodiment, the quantification of N1(4)inh and [Chol]2[N1(4)inh] was carried by UV-spectroscopy, using a UV-spectrophotometry (SYNERGY|HT microplate reader, BioTek) at a wavelength of 416 nm and 480 nm, respectively. The interference of the PBS with the quantification method was also ascertained and blank control samples were always used.
as §1, with “embodiment, solutes (N1(4)inh and [Chol]2[N1(4)inh]+N1(4)inh) were added in excess to a fixed volume (500 μL) of water and PBS solution. […] The” for “embodiment, the”, “and [Chol]2[N1(4)inh]+N1(4)inh” for “and [Chol]2[N1(4)inh]”

Nox1 = biological target: T2, Nox1 (Homo sapiens, UniProt Q9Y5S8); conditions: Bae et al. 2016; cited from earlier work
T2 construct: host or cells: drosophila
T2 sequence (Q9Y5S8 1-564): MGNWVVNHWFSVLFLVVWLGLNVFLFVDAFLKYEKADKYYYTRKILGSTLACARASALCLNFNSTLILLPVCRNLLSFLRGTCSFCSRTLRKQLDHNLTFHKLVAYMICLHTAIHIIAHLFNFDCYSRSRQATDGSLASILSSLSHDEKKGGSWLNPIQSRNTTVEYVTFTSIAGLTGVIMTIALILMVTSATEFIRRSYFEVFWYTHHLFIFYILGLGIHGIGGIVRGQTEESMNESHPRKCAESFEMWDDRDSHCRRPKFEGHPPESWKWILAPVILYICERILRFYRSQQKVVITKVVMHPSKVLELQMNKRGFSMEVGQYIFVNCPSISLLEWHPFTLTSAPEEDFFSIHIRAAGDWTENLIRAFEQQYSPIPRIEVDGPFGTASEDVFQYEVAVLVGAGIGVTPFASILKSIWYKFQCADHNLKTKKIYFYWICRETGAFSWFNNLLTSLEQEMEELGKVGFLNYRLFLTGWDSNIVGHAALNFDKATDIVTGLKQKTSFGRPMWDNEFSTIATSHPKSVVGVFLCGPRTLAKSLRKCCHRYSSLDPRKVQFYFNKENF

- decomposition temperature (thermal stability) [1]: 200 °C
- solubility ([2]; aqueous buffer, PBS, read-out: solubility in PBS): 8 ± 1 µg/mL
- solubility ([2]; water, read-out: solubility in water): 11 ± 2 µg/mL
SMILES: CN1C(=S)N(C2CCCCC2)C(=O)C1=Cc1ccc(O)cc1O [N1(4)inh, 3-cyclohexyl-5-(2,4-dihydroxybenzylidene)-1-methyl-2-thiohydantoin]
- inhibition of Nox4 (Nox4): partial inhibitor
- neuroprotective potential (dopaminergic neurons): high neuroprotective potential
- inhibition of Nox1 (Nox1): effective inhibitor
